# Reference: the supplement of paper PMC7840683
# ± gives the standard deviation of the averaged measurements.
# Tested on: HepaRG
# Assay: LDH release cytotoxicity, % of total lysis control; higher = more cytotoxic
# Conditions: 48 h
# Method in brief: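 HepaRG cells from a single lot were plated on collagen I-coated 96-well plates and treated in duplicate for 48 h with eight-point half-log series of test chemicals, starting at 100 µM, in serum-free induction medium containing 0.5% DMSO. Total lysis wells were given 0.1% Triton X. LDH released into 50 µL of spent medium was measured as resorufin fluorescence with CytoTox-ONE on a Tecan Safire. Percent cytotoxicity was normalized to on-plate vehicle and total lysis controls and then averaged across duplicates.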
Compound,LDH release cytotoxicity (0.031623 µM) [%],LDH release cytotoxicity (0.1 µM) [%],LDH release cytotoxicity (0.316228 µM) [%],LDH release cytotoxicity (1 µM) [%],LDH release cytotoxicity (3.16228 µM) [%],LDH release cytotoxicity (10 µM) [%],LDH release cytotoxicity (31.6228 µM) [%],LDH release cytotoxicity (100 µM) [%],LDH release cytotoxicity (0.03162 µM) [%],LDH release cytotoxicity (0.3162278 µM) [%],LDH release cytotoxicity (0.0327296 µM) [%],LDH release cytotoxicity (0.1035 µM) [%],LDH release cytotoxicity (0.327296 µM) [%],LDH release cytotoxicity (1.035 µM) [%],LDH release cytotoxicity (3.27296 µM) [%],LDH release cytotoxicity (10.35 µM) [%],LDH release cytotoxicity (32.729574 µM) [%],LDH release cytotoxicity (103.5 µM) [%]
C=CCCCCCCCCCCCC [1-Tetradecene],-1.3 ± 1.6,-3.45 ± 0.87,-3.94 ± 1.4,-4.65 ± 0.72,-3.81 ± 0.5,-4.29 ± 0.17,-4.23 ± 0.41,-4.05 ± 0.7,–,–,–,–,–,–,–,–,–,–
CCC[CH2][Sn]([Cl])([CH2]CCC)[CH2]CCC [Tributyltin chloride],0.564 ± 1.9,-3.6 ± 1.2,-2.2 ± 0.71,-2.91 ± 0.74,-3.46 ± 0.11,-2.765 ± 0.018,-1.81 ± 0.11,0.00684 ± 1.1,–,–,–,–,–,–,–,–,–,–
NC(=O)Cn1c(=O)cc(CCN2CCN(c3nccc4sccc34)CC2)c2ccc(F)cc21 [Trelanserin],–,-2.72 ± 0.22,–,-2.79 ± 0.15,-2.49 ± 0.9,-3.23 ± 0.63,-3.19 ± 0.31,4.59 ± 0.19,-2.76 ± 0.59,-2.6 ± 0.45,–,–,–,–,–,–,–,–
CC(C)(c1ccccc1)c1ccc(O)cc1 [4-Cumylphenol],–,0.26 ± 0.48,–,-2.27 ± 0.56,-0.891 ± 1.4,-0.313 ± 0.88,2.91 ± 0.44,111 ± 5.5,-1.06 ± 1.8,-1.3 ± 0.86,–,–,–,–,–,–,–,–
COP(=O)(OC)SCn1c(=O)oc2cc(Cl)cnc21 [Azamethiphos],–,-2.24 ± 0.48,–,-1.66 ± 0.097,-2.14 ± 0.29,-1.74 ± 0.23,1.89 ± 0.59,22.6 ± 3.6,-1.96 ± 0.53,-2.14 ± 0.47,–,–,–,–,–,–,–,–
CC(C)(C)c1ccccc1O [2-tert-Butylphenol],–,-1.24 ± 0.37,–,-1.31 ± 1.3,-0.599 ± 0.044,-0.21 ± 0.92,-0.521 ± 0.091,0.121 ± 1,-1.05 ± 0.97,-1.22 ± 0.3,–,–,–,–,–,–,–,–
Oc1ccccc1-c1ccccc1 [2-Phenylphenol],–,–,–,–,–,–,–,–,–,–,-1.34 ± 0.032,-1.96 ± 0.059,-0.0202 ± 0.57,-0.704 ± 0.57,-1.21 ± 0.68,0.0213 ± 0.73,-0.237 ± 0.41,0.858 ± 0.56
CCCCN(CCCC)N=O [N-Nitrosodibutylamine],–,-1.36 ± 0.25,–,-2.27 ± 0.91,-1.56 ± 0.58,-1.2 ± 0.67,-1.12 ± 0.17,0.0939 ± 0.25,-1.09 ± 0.045,-1.56 ± 0.69,–,–,–,–,–,–,–,–
CC1(C(=O)Nc2ccc(O)c(Cl)c2Cl)CCCCC1 [Fenhexamid],-0.566 ± 0.13,-4.08 ± 0.5,-4.43 ± 1.2,-3.83 ± 0.64,-3.52 ± 0.054,-3.56 ± 0.41,-3.14 ± 0.72,-0.0455 ± 1.5,–,–,–,–,–,–,–,–,–,–
CCO[Si](CCCNC(N)=O)(OCC)OCC [1-[3-(Triethoxysilyl)propyl]urea],–,-2.25 ± 0.44,–,-2.22 ± 0.071,-2.28 ± 0.25,-1.64 ± 0.34,-1.55 ± 0.96,0.263 ± 0.38,-1.05 ± 0.013,-1.8 ± 0.35,–,–,–,–,–,–,–,–
C1CCC(SSC2CCCCC2)CC1 [Dicyclohexyl disulfide],–,-0.62 ± 0.75,–,-1.38 ± 0.086,-2 ± 0.2,-0.29 ± 0.24,2.64 ± 0.37,68.4 ± 6.2,-0.985 ± 0.37,-0.405 ± 0.35,–,–,–,–,–,–,–,–
CCCCCCCCN(C)CCCCCCCC [N-Methyldioctylamine],–,-1.29 ± 0.46,–,-1.23 ± 0.32,-0.708 ± 0.21,-1.14 ± 0.69,-0.369 ± 0.46,0.33 ± 0.63,-0.874 ± 0.42,-1.43 ± 0.024,–,–,–,–,–,–,–,–
CCOP(=O)(OCC)Oc1cc(C)nc(C(C)C)n1 [Diazoxon],–,-1.35 ± 0.75,–,-1.37 ± 1.6,-1.41 ± 0.85,-0.802 ± 2.1,-0.357 ± 1.4,1.03 ± 2.2,-0.61 ± 0.39,-0.708 ± 1.4,–,–,–,–,–,–,–,–
O=C(CCl)c1ccccc1 [2-Chloroacetophenone],–,-0.706 ± 0.44,–,-0.336 ± 0.2,-0.414 ± 0.23,0.0717 ± 0.49,1.4 ± 0.058,17.7 ± 0.94,-1 ± 0.077,0.0478 ± 0.81,–,–,–,–,–,–,–,–
CC(C)N1C(=O)N(c2ccccc2)CSC1=NC(C)(C)C [Buprofezin],–,-1.93 ± 0.62,–,-2.46 ± 1.3,-2.17 ± 0.66,-1.91 ± 0.48,-2.33 ± 0.99,11.8 ± 0.29,-1.37 ± 0.98,-1.95 ± 0.58,–,–,–,–,–,–,–,–
CCOC(=O)CCC(=O)OCC [Diethyl butanedioate],–,-1.75 ± 0.66,–,-1.99 ± 0.076,-0.438 ± 0.84,-0.384 ± 0.28,16 ± 3.3,83.2 ± 4.8,-2.6 ± 0.22,-2.02 ± 0.1,–,–,–,–,–,–,–,–
"CC(C)(C)CC(C)(C)c1ccc(O)cc1 [4-(1,1,3,3-Tetramethylbutyl)phenol]",–,-1.58 ± 0.72,–,-1.68 ± 0.34,-1.21 ± 0.76,-1.69 ± 0.45,-0.473 ± 0.21,42.9 ± 6.3,-1.49 ± 0.56,-1.966 ± 0.018,–,–,–,–,–,–,–,–
"O=C(c1ccc(O)cc1O)c1ccc(O)cc1O [2,2',4,4'-Tetrahydroxybenzophenone]",-0.783 ± 0.28,-1.13 ± 1.1,-1.37 ± 0.79,-1.52 ± 0.89,-2.25 ± 0.71,-1.76 ± 0.33,1.26 ± 0.54,35.3 ± 1.2,–,–,–,–,–,–,–,–,–,–
"CC(C)c1cccc(C(C)C)c1 [1,3-Diisopropylbenzene]",-1.99 ± 0.73,-2.55 ± 1.5,-2.42 ± 1.3,-4.25 ± 0.7,-3.82 ± 0.32,-2.51 ± 1.5,-1.16 ± 0.34,0.451 ± 1.2,–,–,–,–,–,–,–,–,–,–
